The text below walks through data of patent publication US20220323406A1, “METHODS AND COMPOSITIONS FOR DIFFERENTIATING STEM CELLS” (Massachusetts Institute of Technology, priority 2019, published 2022).

Assay [1] relates to ENR+CD organoids (ISC to Paneth cell differentiation). The assay can be described thus: Primary screen: basal (non-stimulated) lysozyme secretion LYZ.NS, 2.5-D 384-well ENR+CD organoid differentiation. The assay is classed as cell-based, mouse. From the text:
(§1) High-throughput screening.

Assay [2] has the same test system. The assay can be described thus: Primary screen: CCh-stimulated lysozyme secretion LYZ.S, 2.5-D 384-well ENR+CD organoid differentiation. The class given is cell-based, mouse. The following applies: primary screen.
Description: as §1

Assay [3] deals with ENR+CD organoids. The assay can be described thus: Primary screen: ATP (CellTiter-Glo 3D, CTG) cell number/viability, 2.5-D 384-well ENR+CD organoids.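 For all read-outs here: compounds given at plating and again on day 3 over a 6-day differentiation from ENR+CV stem-cell-enriched precursors, ATP measured on day 6, plate median as control.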 The following applies: primary screen; for Z.CTG: standard z score. (In ATP-based viability assays light output follows the ATP content of the culture.)
The mark [4] stands for this setting: primary screen, standard z score, dose 0.08 uM.
Setting [5] is: primary screen, standard z score, dose 0.40 uM.
Setting [6] is: primary screen, standard z score, dose 2.00 uM.
Setting [7] is: primary screen, standard z score, dose 10.00 uM.
The mark [8] stands for this setting: dose 0.08 uM, FC vs plate median.
[9] abbreviates: dose 0.40 uM, FC vs plate median.
Setting [10] is: dose 2.00 uM, FC vs plate median.
The mark [11] stands for this setting: dose 10.00 uM, FC vs plate median.

For the compound `COc1ccc2nc([S@@+]([O-])Cc3ncc(C)c(OC)c3C)[nH]c2c1` [Esomeprazole Sodium], the Dose.FC.LYZ.NS in assay [1] (primary screen, dose 0.08 uM) is listed as 0.086 log2 fold change; in assay [1] (primary screen, dose 0.40 uM), 0.233 log2 fold change; in assay [1] (primary screen, dose 2.00 uM), 0.034 log2 fold change; in assay [1] (primary screen, dose 10.00 uM), −0.016 log2 fold change. Further, the Z.LYZ.NS in assay [1] (setting [4]) is 0.747; in assay [1] (setting [5]) it was 2.030; in assay [1] (setting [6]), 0.300; in assay [1] (setting [7]) it was −0.139. The Dose.FC.LYZ.S turned out to be 0.146 log2 fold change in assay [2] (dose 0.08 uM), 0.174 log2 fold change in assay [2] (dose 0.40 uM), 0.043 log2 fold change in assay [2] (dose 2.00 uM) and 0.021 log2 fold change in assay [2] (dose 10.00 uM). Also, the Dose.FC.CTG was 0.288 log2 fold change in assay [3] (dose 0.08 uM), 0.199 log2 fold change in assay [3] (dose 0.40 uM), 0.386 log2 fold change in assay [3] (dose 2.00 uM) and 0.271 log2 fold change in assay [3] (dose 10.00 uM).
In the case of `COc1cccc(C=NCCN=Cc2cccc(OC)c2[O-])c1[O-].[Cl-].[Mn+3]` [EUK 134], the Dose.FC.LYZ.NS in assay [1] (primary screen, dose 0.08 uM) is listed as 0.068 log2 fold change; in assay [1] (primary screen, dose 0.40 uM), 0.003 log2 fold change; in assay [1] (primary screen, dose 2.00 uM), 0.028 log2 fold change; in assay [1] (primary screen, dose 10.00 uM), −0.085 log2 fold change. Further, the Z.LYZ.NS in assay [1] (setting [4]) was 0.594; in assay [1] (setting [5]), 0.026; in assay [1] (setting [6]), 0.247; in assay [1] (setting [7]) it was −0.741. The Dose.FC.LYZ.S is 0.025 log2 fold change in assay [2] (dose 0.08 uM), 0.057 log2 fold change in assay [2] (dose 0.40 uM), −0.034 log2 fold change in assay [2] (dose 2.00 uM) and −0.132 log2 fold change in assay [2] (dose 10.00 uM). In addition, the Dose.FC.CTG is −0.015 log2 fold change in assay [3] (dose 0.08 uM), −0.162 log2 fold change in assay [3] (dose 0.40 uM), 0.091 log2 fold change in assay [3] (dose 2.00 uM) and −0.024 log2 fold change in assay [3] (dose 10.00 uM). In addition, the Z.CTG in assay [3] (dose 0.08 uM) is −0.035; in assay [3] (dose 0.40 uM), −0.387; in assay [3] (dose 2.00 uM), 0.217; in assay [3] (dose 10.00 uM), −0.057.
Turning to `Nc1nc(CC(=O)Nc2ccc(CCNC[C@H](O)c3ccccc3)cc2)cs1` [Mirabegron], the Z.LYZ.NS in assay [1] (primary screen, dose 0.08 uM, standard z score) is on record as 1.201; in assay [1] (primary screen, dose 0.40 uM, standard z score), −0.259; in assay [1] (primary screen, dose 2.00 uM, standard z score), −0.301; in assay [1] (primary screen, dose 10.00 uM, standard z score), 0.193. The Dose.FC.LYZ.NS is reported as 0.138 log2 fold change in assay [1] (primary screen; dose 0.08 uM; FC vs plate median), −0.030 log2 fold change in assay [1] (primary screen; dose 0.40 uM; FC vs plate median), −0.035 log2 fold change in assay [1] (primary screen; dose 2.00 uM; FC vs plate median) and 0.022 log2 fold change in assay [1] (primary screen; dose 10.00 uM; FC vs plate median). Also, the Dose.FC.LYZ.S in assay [2] (setting [8]) was 0.148 log2 fold change; in assay [2] (setting [9]), −0.016 log2 fold change; in assay [2] (setting [10]) it was −0.049 log2 fold change; in assay [2] (setting [11]), −0.010 log2 fold change. The Dose.FC.CTG in assay [3] (setting [8]) was 0.029 log2 fold change; in assay [3] (setting [9]), −0.335 log2 fold change; in assay [3] (setting [10]) it was 0.019 log2 fold change; in assay [3] (setting [11]), −0.051 log2 fold change.
Take `O=C(/C=C\n1cnc(-c2cc(C(F)(F)F)cc(C(F)(F)F)c2)n1)N1CC(F)(F)C1` [KPT-276]: the “Dose.FC.LYZ.NS (log2 fold change)” value in assay [1] (primary screen, dose 0.08 uM) is recorded as 0.056; in assay [1] (primary screen, dose 0.40 uM) it was 0.086; in assay [1] (primary screen, dose 2.00 uM), −0.224; in assay [1] (primary screen, dose 10.00 uM), −0.256. Also, the “Z.LYZ.NS (standard z score)” value in assay [1] (primary screen, dose 0.08 uM) is 0.492; in assay [1] (primary screen, dose 0.40 uM), 0.746; in assay [1] (primary screen, dose 2.00 uM), −1.947; in assay [1] (primary screen, dose 10.00 uM) it was −2.230. For the same compound, the “Dose.FC.LYZ.S (log2 fold change)” value in assay [2] (dose 0.08 uM) is listed as 0.133; in assay [2] (dose 0.40 uM), 0.148; in assay [2] (dose 2.00 uM), −0.327; in assay [2] (dose 10.00 uM) it was −0.361. Moreover, the “Dose.FC.CTG (log2 fold change)” value is 0.167 in assay [3] (dose 0.08 uM), −0.044 in assay [3] (dose 0.40 uM), −0.413 in assay [3] (dose 2.00 uM) and −0.703 in assay [3] (dose 10.00 uM). Further, the “Z.CTG (standard z score)” value was 0.399 in assay [3] (dose 0.08 uM), −0.104 in assay [3] (dose 0.40 uM), −0.986 in assay [3] (dose 2.00 uM) and −1.680 in assay [3] (dose 10.00 uM).
For `COc1cc(N2CCC(N3CCN(C)CC3)CC2)ccc1Nc1ncc(Cl)c(Nc2ccccc2P(C)(C)=O)n1` [AP26113], the Dose.FC.LYZ.NS in assay [1] (primary screen, dose 0.08 uM) is −0.013 log2 fold change; in assay [1] (primary screen, dose 0.40 uM), −0.062 log2 fold change; in assay [1] (primary screen, dose 2.00 uM), −0.196 log2 fold change; in assay [1] (primary screen, dose 10.00 uM), −0.272 log2 fold change. Besides, the “Z.LYZ.NS (standard z score)” value in assay [1] (primary screen, dose 0.08 uM) is listed as −0.116; in assay [1] (primary screen, dose 0.40 uM), −0.541; in assay [1] (primary screen, dose 2.00 uM), −1.706; in assay [1] (primary screen, dose 10.00 uM) it was −2.370. Further, the Dose.FC.LYZ.S in assay [2] (dose 0.08 uM) is recorded as 0.109 log2 fold change; in assay [2] (dose 0.40 uM), −0.038 log2 fold change; in assay [2] (dose 2.00 uM), −0.244 log2 fold change; in assay [2] (dose 10.00 uM), −0.343 log2 fold change. For the same compound, the Dose.FC.CTG in assay [3] (dose 0.08 uM) was −0.054 log2 fold change; in assay [3] (dose 0.40 uM) it was 0.061 log2 fold change; in assay [3] (dose 2.00 uM) it was −0.558 log2 fold change; in assay [3] (dose 10.00 uM), −1.680 log2 fold change.
